This note sets out measurements from ChEMBL document CHEMBL1201862, “PubChem BioAssay data set” (2004).

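Cultured in 96-well plates, cells were exposed to test compound for 48 hours across five concentrations. GI50: concentration for 50% inhibition of growth.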 Active and inactive are the calls of the source. No stated cut-off is given here; in the data, active = GI50 up to about 1.1 µM and inactive = higher.

As usually defined, the GI50 is the concentration giving 50% growth inhibition.

Holding throughout (experiment): DTP human tumour cell line panel, 48 h
The test system of experiment [1] is A549.
Experiment [2] relates to HOP-62.
Experiment [3] deals with Malme-3M.
The test system of experiment [4] is EKVX.
For experiment [5], the system named is K562.
Experiment [6] concerns DLD-1.
In experiment [7] the test system is SK-OV-3.
The subject of experiment [8] is NCI-H460.
In experiment [9] the test system is M14.
Experiment [10] deals with SF-539.
In experiment [11] the test system is SK-MEL-2.
Experiment [12] concerns UACC-62.
In experiment [13] the test system is SN12C.
The subject of experiment [14] is CCRF-CEM.
Experiment [15] concerns HT-29.
The subject of experiment [16] is HCT-116.
The test system of experiment [17] is RXF 393.
Experiment [18] deals with SR.
Experiment [19] has as its system Hs-578T.
Experiment [20] deals with MDA-MB-435.

Turning to `CCOc1ccc(NC2=NC(=O)C(CC(=O)Nc3ccc(Cl)cc3Cl)S2)cc1` (stereo unspecified), the GI50 in experiment [1], in experiment [2], in [3], in [4], in experiment [5] and in [6] was > 100 µM (inactive) each time. Also, the GI50 in experiment [7], in experiment [8], in experiment [9], in experiment [10], in experiment [11] and in experiment [12] was > 100 µM (inactive) each time. Moreover, the GI50 in experiment [13] was > 100 µM (inactive); in experiment [14], 21.6 µM (inactive); in experiment [15], > 100 µM (inactive).
For the molecule `O=[N+]([O-])c1cccc(C2=NN(c3ccccc3)C3c4cc(Br)ccc4OCC23)c1` (stereo unspecified), the GI50 was > 100 µM (inactive) in [1]; > 100 µM (inactive) in experiment [2]; > 100 µM (inactive) in [3]; 45.9 µM (inactive) in [16]; 87.7 µM (inactive) in [4]; > 100 µM (inactive) in experiment [17]. Also, the GI50 in experiment [5], in experiment [6], in experiment [7], in experiment [8], in experiment [10] and in experiment [11] was > 100 µM (inactive) throughout. The GI50 in [14] was > 100 µM (inactive); in [15], 46.1 µM (inactive).
For `CCOC(=O)N1c2c(ccn2C)-c2ccn(C)c2N1C(=O)OCC`, the GI50 in experiment [1] was 20.9 µM (inactive); in [2] it was > 100 µM (inactive); in [3], 19 µM (inactive); in experiment [16] it was 14.8 µM (inactive); in experiment [18], 15.8 µM (inactive); in experiment [5], 4.2 µM (inactive). For the same molecule, the GI50 in experiment [6] is 13.6 µM (inactive); in experiment [7], 30.6 µM (inactive); in [8], 19.4 µM (inactive); in [9], 15.1 µM (inactive); in experiment [10] it was 20 µM (inactive); in [11] it was 21.4 µM (inactive). Also, the GI50 in [12] is 16.7 µM (inactive); in experiment [13], 15.8 µM (inactive); in experiment [14], 2.64 µM (inactive); in experiment [15], 15.7 µM (inactive).
In the case of `NC(=O)c1cc(C2OC(CO)C(O)C2O)nn1-c1ccc([N+](=O)[O-])cc1` (stereo unspecified), the GI50 in [1], in experiment [2], in experiment [3], in experiment [16], in experiment [4] and in experiment [17] was > 100 µM (inactive) in each case. Moreover, the GI50 in experiment [5], in experiment [6], in [7], in experiment [8], in experiment [9] and in experiment [10] was > 100 µM (inactive) throughout. In addition, the GI50 in experiment [11], in experiment [12], in experiment [13], in experiment [14] and in experiment [15] was > 100 µM (inactive) in each case.
Take `C[C@@H]1O[C@@H](O[C@H]2[C@H](Oc3cc(O)c4c(=O)cc(-c5ccc(O)cc5)oc4c3)O[C@H](CO)[C@@H](O)[C@@H]2O)[C@H](O)[C@H](O)[C@H]1O` [RHOIFOLIN]: the GI50 in [1], in [2], in experiment [3], in experiment [16], in experiment [4] and in experiment [5] was > 100 µM (inactive) throughout. The GI50 in experiment [6], in experiment [7], in experiment [8], in experiment [9], in experiment [10] and in [11] was > 100 µM (inactive) each time. For the same molecule, the GI50 in experiment [12], in experiment [13], in experiment [14] and in [15] was > 100 µM (inactive) in each case.
For `O=C(Nc1nc2ncn(CCNCCn3cnc4nc(NC(=O)c5ccccc5)[nH]c(=O)c43)c2c(=O)[nH]1)c1ccccc1`, the GI50 in experiment [1], in [2], in experiment [3], in experiment [16], in experiment [4] and in [17] was > 100 µM (inactive) throughout. Besides, the GI50 in experiment [5], in experiment [6], in experiment [7], in [8], in experiment [9] and in [10] was > 100 µM (inactive) in each case. Besides, the GI50 in [11], in experiment [12], in experiment [13], in [14] and in experiment [15] was > 100 µM (inactive) throughout.
On to `COC(=O)[C@@]12CC(C(C)C)[C@H]3CC(C(=O)C=C1OC)[C@H]32` (stereo partly specified), for which the GI50 in experiment [1], in [2], in experiment [3], in [16], in experiment [4] and in experiment [17] was > 100 µM (inactive) in each case. Further, the GI50 in experiment [5] is 85.5 µM (inactive); in [6] it was > 100 µM (inactive); in [7], > 100 µM (inactive); in [8] it was > 100 µM (inactive); in [9], > 100 µM (inactive); in [10], > 100 µM (inactive). The GI50 is > 100 µM (inactive) in experiment [11]; > 100 µM (inactive) in [12]; > 100 µM (inactive) in experiment [13]; 47.5 µM (inactive) in [14]; > 100 µM (inactive) in experiment [15].
Turning to `O=c1c2ccccc2oc2ccccc12.Oc1cccc2cccnc12`, the GI50 in [1] was 2.63 µM (inactive); in experiment [2] it was 7.43 µM (inactive); in [3], 1.75 µM (inactive); in experiment [16], 2.56 µM (inactive); in [4] it was 3.44 µM (inactive); in experiment [18] it was 2.73 µM (inactive). The GI50 was 4.99 µM (inactive) in experiment [5]; 1.76 µM (inactive) in experiment [6]; < 0.01 µM (active) in experiment [7]; 0.966 µM (active) in experiment [8]; 3.11 µM (inactive) in experiment [9]; 2.36 µM (inactive) in experiment [10]. Besides, the GI50 is 3.76 µM (inactive) in experiment [12], 2.22 µM (inactive) in experiment [13] and 0.815 µM (active) in experiment [14].
For the molecule `COC(=O)C(C(=O)C(=O)Nc1nc2ccc(OC)cc2s1)c1cnc2ccccc2n1` (stereo unspecified), the GI50 in experiment [1], in experiment [2], in [3], in experiment [16], in experiment [4] and in [17] was > 100 µM (inactive) in each case. In addition, the GI50 in [5], in [6], in [7], in experiment [8], in [9] and in [10] was > 100 µM (inactive) throughout. For the same molecule, the GI50 in [12], in experiment [13] and in [15] was > 100 µM (inactive) throughout.
`N=CCCN(CCC=N)c1ccc(/C=C2\CN(NC(=O)c3ccc(Cl)cc3)C(c3ccccc3)=N2)cc1`: the GI50 in experiment [1], in [2], in experiment [3], in [16], in [4] and in experiment [5] was > 100 µM (inactive) each time. In addition, the GI50 in [6], in experiment [7], in experiment [8], in experiment [9], in experiment [10] and in experiment [11] was > 100 µM (inactive) throughout. The GI50 in [12], in experiment [13], in experiment [14] and in experiment [15] was > 100 µM (inactive) each time.
As to `CC(=O)OC(C)(C)/C=C/C(=O)[C@](C)(O)[C@H]1[C@H](O)C[C@@]2(C)[C@@H]3CC=C4[C@@H](C[C@H](O)C(=O)C4(C)C)[C@]3(C)C(=O)C[C@]12C`, the GI50 in [1] was < 0.01 µM (active); in experiment [2] it was < 0.0111 µM (active); in experiment [3] it was < 0.01 µM (active); in [16], < 0.01 µM (active); in experiment [4] it was 0.0102 µM (active); in [18], < 0.01 µM (active). In addition, the GI50 in experiment [19], in [17], in experiment [5], in experiment [7], in experiment [8] and in [9] was < 0.01 µM (active) in each case. The GI50 in experiment [10] was < 0.01 µM (active); in experiment [11] it was < 0.01 µM (active); in experiment [12] it was < 0.01 µM (active); in experiment [13], < 0.0143 µM (active); in experiment [14], < 0.01 µM (active); in experiment [20] it was < 0.01 µM (active). Also, the GI50 in experiment [15] was < 0.01 µM (active).
With `N=c1[nH]cnc2c1nnn2C1C=CC(COS(N)(=O)=O)C1` (stereo unspecified), the GI50 was 10.5 µM (inactive) in experiment [1]; 9.91 µM (inactive) in experiment [2]; 15.8 µM (inactive) in [3]; 5.24 µM (inactive) in experiment [16]; 28.9 µM (inactive) in experiment [4]; 18 µM (inactive) in experiment [18]. Also, the GI50 in [19] was 1.87 µM (inactive); in [17], 8.45 µM (inactive); in experiment [5] it was 5.47 µM (inactive); in experiment [7] it was 24.6 µM (inactive); in [8], 6.87 µM (inactive); in experiment [9], 7 µM (inactive). For the same molecule, the GI50 in experiment [10] is 1.85 µM (inactive); in experiment [11], 3.01 µM (inactive); in experiment [12], 3.37 µM (inactive); in experiment [13], 15.9 µM (inactive); in experiment [14] it was 13.2 µM (inactive); in experiment [20], 4.24 µM (inactive). Moreover, the GI50 in [15] was 7.33 µM (inactive).
